Results taken from ChEMBL document CHEMBL3621155, “The status of the lysophosphatidic acid receptor type 1 (LPA1R)” (Medchemcomm, 2015).
One block for each molecule: values may come before it.

Legend:
[1] = molecular target: Lysophosphatidic acid receptor 1/lysophosphatidic acid receptor 3 (Rattus norvegicus, UniProt Q8K5E0+P61794); experiment: Antagonist activity at LPA1/LPA3 receptor (unknown origin); type: protein assay, Homo sapiens
[2] = molecular target: T1, Lysophosphatidic acid receptor 2 (Homo sapiens, UniProt Q9HBW0); experiment: Antagonist activity at human LPA2 receptor expressed in CHO cells assessed as inhibition of LPA-induced calcium mobilization preincubated for 30 mins followed by LPA induction by FLIPR Calcium 4 dye-based fluorometric analysis; type: functional, cell-based
T1 sequence (Q9HBW0 whole entry): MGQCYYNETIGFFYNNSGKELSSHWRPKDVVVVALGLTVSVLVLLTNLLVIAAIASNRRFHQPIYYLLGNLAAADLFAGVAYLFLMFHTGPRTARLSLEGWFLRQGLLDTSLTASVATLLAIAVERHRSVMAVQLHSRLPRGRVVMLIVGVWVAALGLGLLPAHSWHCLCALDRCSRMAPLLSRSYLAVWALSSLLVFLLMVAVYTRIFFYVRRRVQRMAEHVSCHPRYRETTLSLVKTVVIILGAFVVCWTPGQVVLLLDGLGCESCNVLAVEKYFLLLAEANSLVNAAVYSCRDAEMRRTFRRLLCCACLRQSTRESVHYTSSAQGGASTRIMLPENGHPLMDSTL

[3] = molecular target: T2, Lysophosphatidic acid receptor 1 (Homo sapiens, UniProt Q92633); experiment: Antagonist activity at human LPA1 receptor expressed in CHO cells assessed as inhibition of LPA-induced calcium mobilization preincubated for 30 mins followed by LPA induction by FLIPR Calcium 4 dye-based fluorometric analysis; type: functional, cell-based
T2 sequence (Q92633 whole entry): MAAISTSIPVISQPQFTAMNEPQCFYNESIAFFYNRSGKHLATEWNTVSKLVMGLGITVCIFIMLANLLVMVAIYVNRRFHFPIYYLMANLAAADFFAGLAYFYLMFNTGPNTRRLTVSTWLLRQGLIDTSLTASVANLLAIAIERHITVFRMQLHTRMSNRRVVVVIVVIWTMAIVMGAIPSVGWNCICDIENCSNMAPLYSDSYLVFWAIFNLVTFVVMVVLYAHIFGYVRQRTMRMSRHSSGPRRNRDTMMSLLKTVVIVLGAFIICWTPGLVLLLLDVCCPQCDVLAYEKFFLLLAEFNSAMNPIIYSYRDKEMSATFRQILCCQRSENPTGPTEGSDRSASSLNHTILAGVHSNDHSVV

[4] = molecular target: T3, Lysophosphatidic acid receptor 3 (Homo sapiens, UniProt Q9UBY5); experiment: Antagonist activity at human LPA3 receptor expressed in CHO cells assessed as inhibition of LPA-induced calcium mobilization preincubated for 30 mins followed by LPA induction by FLIPR Calcium 4 dye-based fluorometric analysis; type: functional, cell-based
T3 sequence (Q9UBY5 whole entry): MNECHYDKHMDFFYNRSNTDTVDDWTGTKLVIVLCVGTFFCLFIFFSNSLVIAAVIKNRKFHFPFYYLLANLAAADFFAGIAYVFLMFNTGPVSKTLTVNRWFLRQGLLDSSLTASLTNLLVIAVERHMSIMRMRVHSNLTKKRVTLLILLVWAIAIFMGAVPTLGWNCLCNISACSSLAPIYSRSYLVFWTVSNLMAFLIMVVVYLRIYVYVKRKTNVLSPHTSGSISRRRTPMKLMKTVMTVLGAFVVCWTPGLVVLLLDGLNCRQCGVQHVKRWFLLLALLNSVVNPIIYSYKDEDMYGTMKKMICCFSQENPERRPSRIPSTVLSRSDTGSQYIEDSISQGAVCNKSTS

[5] = Displacement of [32P]diazirine-LPA from LPA receptor in mouse N1E-115 cells preincubated for 1 hr in dark followed by UV irradiation for 5 mins by scintillation counting analysis; type: cell-based
[6] = molecular target: T1, Lysophosphatidic acid receptor 2; experiment: Antagonist activity at human LPA2 receptor expressed in rat B103 cells assessed as inhibition of LPA-induced calcium mobilization preincubated for 30 mins followed by LPA induction by FLIPR Calcium 4 dye-based fluorometric analysis; type: functional, cell-based
[7] = molecular target: T4, Lysophosphatidic acid receptor 4 (Homo sapiens, UniProt Q99677); experiment: Antagonist activity at human LPA4 receptor expressed in rat B103 cells assessed as inhibition of LPA-induced calcium mobilization preincubated for 30 mins followed by LPA induction by FLIPR Calcium 4 dye-based fluorometric analysis; type: functional, cell-based
T4 sequence (Q99677 whole entry): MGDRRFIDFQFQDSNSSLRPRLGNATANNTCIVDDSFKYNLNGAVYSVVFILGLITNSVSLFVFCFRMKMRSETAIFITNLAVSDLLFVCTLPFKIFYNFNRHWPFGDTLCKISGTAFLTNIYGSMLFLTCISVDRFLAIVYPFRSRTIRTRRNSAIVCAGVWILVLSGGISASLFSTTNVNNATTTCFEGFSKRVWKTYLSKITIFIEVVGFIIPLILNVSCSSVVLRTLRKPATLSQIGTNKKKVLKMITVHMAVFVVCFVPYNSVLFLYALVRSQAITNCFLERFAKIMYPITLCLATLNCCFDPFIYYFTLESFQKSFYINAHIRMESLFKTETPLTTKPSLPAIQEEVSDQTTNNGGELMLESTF

[8] = molecular target: Lysophosphatidic acid receptor 5 (Homo sapiens, UniProt Q9H1C0); experiment: Antagonist activity at human LPA5 receptor expressed in rat B103 cells assessed as inhibition of LPA-induced calcium mobilization preincubated for 30 mins followed by LPA induction by FLIPR Calcium 4 dye-based fluorometric analysis; type: functional, cell-based
Lysophosphatidic acid receptor 5, sequence (Q9H1C0 whole entry): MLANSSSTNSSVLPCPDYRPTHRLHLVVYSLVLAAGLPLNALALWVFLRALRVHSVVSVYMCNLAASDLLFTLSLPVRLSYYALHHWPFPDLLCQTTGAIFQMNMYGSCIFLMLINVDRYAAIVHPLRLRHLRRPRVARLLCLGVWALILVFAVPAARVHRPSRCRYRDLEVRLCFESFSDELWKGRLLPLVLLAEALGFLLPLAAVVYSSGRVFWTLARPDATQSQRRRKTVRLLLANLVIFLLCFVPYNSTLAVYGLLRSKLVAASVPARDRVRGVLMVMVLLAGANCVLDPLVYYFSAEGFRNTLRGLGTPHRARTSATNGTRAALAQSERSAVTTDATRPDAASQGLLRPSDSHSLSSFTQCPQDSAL

[9] = molecular target: T2, Lysophosphatidic acid receptor 1; experiment: Agonist activity at human LPA1 receptor transfected in HEK293T cells after 30 mins by GTP[gamma-35S] binding assay; type: cell-based, HEK-293T
[10] = molecular target: T3, Lysophosphatidic acid receptor 3; experiment: Agonist activity at human LPA3 receptor transfected in RH7777 cells assessed as mobilization of Ca2+ by fluorometric analysis; type: functional, cell-based
[11] = molecular target: T2, Lysophosphatidic acid receptor 1; experiment: Agonist activity at human LPA1 receptor transfected in RH7777 cells assessed as mobilization of Ca2+ by fluorometric analysis; type: functional, cell-based
[12] = molecular target: T3, Lysophosphatidic acid receptor 3; experiment: Agonist activity at human LPA3 receptor transfected in HEK293T cells after 30 mins by GTP[gamma-35S] binding assay; type: cell-based, HEK-293T
[13] = molecular target: Lysophosphatidic acid receptor 1 (Mus musculus, UniProt P61793); experiment: Antagonist activity at mouse LPA1 receptor transfected in HEK293T cells; type: cell-based, HEK-293T
Lysophosphatidic acid receptor 1 (Mus musculus, UniProt P61793), sequence (P61793 whole entry): as the sequence (Q92633 whole entry) above, with I4A, I8S, P22Q, H40Y, I61V, E193D, N194H, I269V, S331N, T335N counted along it

[14] = molecular target: T3, Lysophosphatidic acid receptor 3; experiment: Antagonist activity at human LPA3 receptor transfected in HEK293T cells; type: cell-based, HEK-293T
[15] = molecular target: T2, Lysophosphatidic acid receptor 1; experiment: Antagonist activity at human LPA1 receptor expressed in RH7777 cells assessed as inhibition of LPA-induced calcium mobilization by Fura-2 AM probe-based fluorometric analysis; type: functional, cell-based
[16] = molecular target: T1, Lysophosphatidic acid receptor 2; experiment: Antagonist activity at human LPA2 receptor expressed in RH7777 cells assessed as inhibition of LPA-induced calcium mobilization by Fura-2 AM probe-based fluorometric analysis; type: functional, cell-based
[17] = molecular target: T3, Lysophosphatidic acid receptor 3; experiment: Antagonist activity at human LPA3 receptor expressed in RH7777 cells assessed as inhibition of LPA-induced calcium mobilization by Fura-2 AM probe-based fluorometric analysis; type: functional, cell-based
[18] = molecular target: T4, Lysophosphatidic acid receptor 4; experiment: Antagonist activity at human LPA4 receptor expressed in CHO cells assessed as inhibition of LPA-induced calcium mobilization by Fura-2 AM probe-based fluorometric analysis; type: functional, cell-based
[19] = molecular target: T2, Lysophosphatidic acid receptor 1; experiment: Antagonist activity at human LPA1 receptor expressed in CHO cells assessed as inhibition of LPA-induced calcium mobilization preincubated with protein followed by LPA induction measured for 2 mins by Fluo-4 dye-based FLIPR assay; type: functional, cell-based
[20] = molecular target: T1, Lysophosphatidic acid receptor 2; experiment: Agonist activity at human LPA2 receptor transfected in HEK293T cells after 30 mins by GTP[gamma-35S] binding assay; type: cell-based, HEK-293T

Structure (SMILES): Cc1noc(-c2ccc(-c3ccc(CC(=O)O)cc3)cc2)c1NC(=O)O[C@H](C)c1ccccc1Cl
- IC50 [2]: 1700 nM
- IC50 [3]: 17 nM
- IC50 [4]: 1600 nM

Structure (SMILES): CCCCCCCC/C=C\CCCCCCCC(=O)NCCSP(=O)(O)O
- EC50 [9]: 318 nM

Structure (SMILES): CCCCCCCC/C=C\CCCCCCCCOC[C@H](COP(O)(O)=S)OC
- EC50 [10]: 62 nM
- EC50 [11]: 790 nM

Structure (SMILES): CCCCCCCC/C=C\CCCCCCCCOC[C@@H](COP(O)(O)=S)OC
- EC50 [10]: 80 nM
- EC50 [11]: 571 nM

Structure (SMILES): CCCCCCCC/C=C\CCCCCCCC(=O)OC[C@@H](COP(O)(O)=S)OC
- EC50 [12]: 276 nM

Structure (SMILES): CCCCCCCC/C=C\CCCCCCCC(=O)NCCOP(O)(O)=S
- EC50 [9]: 40 nM
- EC50 [20]: 108 nM

The remaining lines, values ahead:

- IC50 [1]: < 100 nM
Structure (SMILES): COc1ccc(C(=O)NC2(C(=O)O)Cc3ccccc3C2)cc1OCCc1cccc(C)c1 [FIPAXALPARANT]

- IC50 [5]: 10 nM
Structure (SMILES): CCCCCCCC/C=C\CCCCCCCC(=O)OC[C@@H](O)COP(=O)(O)O [LYSOPHOSPHATIDIC ACID]

- IC50 [3]: 25 nM
- IC50 [4]: > 8000 nM
- IC50 [6]: > 8000 nM
- IC50 [7]: > 8000 nM
- IC50 [8]: > 8000 nM
Structure (SMILES): Cc1noc(-c2ccc(-c3ccc(CC(=O)O)cc3)cc2)c1NC(=O)O[C@H](C)c1ccccc1

- IC50 [3]: < 50 nM
- IC50 [4]: > 500 nM
Structure (SMILES): Cc1nsc(-c2ccc(-c3ccc(CC(=O)O)cc3)cc2)c1NC(=O)O[C@H](C)c1ccccc1Cl

- IC50 [13]: 5210 nM
- IC50 [14]: 6450 nM
Structure (SMILES): CCCCCCCC/C=C\CCCCCCCC(=O)N[C@H](COP(=O)(O)O)Cc1ccc(OCc2ccccc2)cc1

- IC50 [15]: 1500 nM
- IC50 [16]: 1420 nM
- IC50 [17]: 1160 nM
- IC50 [18]: 266 nM
Structure (SMILES): CCCCCC/C=C\CCCCCCCC(=O)OC[C@@H](O)CC(Br)P(=O)(O)O (some centres not stated)

- IC50 [19]: 6.6 nM
Structure (SMILES): COc1ccc([C@@H](O)C(=O)N(CCCc2ccccc2)Cc2nc(C(=O)NS(C)(=O)=O)c(C)s2)c(F)c1
